Results on nine molecules are retold here after PMC3228891 (Journal of medicinal chemistry, 2011).

One experiment addresses H1 receptor. The note with it: read-out: Ki H1 receptor (ChEMBLdb); known activity in ChEMBLdb ref 28; cited from earlier work.
The next experiment deals with hH1R (Homo sapiens, UniProt P35367). The experiment can be described thus: Inositol phosphate. The experiment is classed as cell-based. As to conditions: for functional character in histamine stimulated InsP accumulation assays: HEK293T cells transiently transfected with hH1R.
Sequence of hH1R (P35367 whole entry): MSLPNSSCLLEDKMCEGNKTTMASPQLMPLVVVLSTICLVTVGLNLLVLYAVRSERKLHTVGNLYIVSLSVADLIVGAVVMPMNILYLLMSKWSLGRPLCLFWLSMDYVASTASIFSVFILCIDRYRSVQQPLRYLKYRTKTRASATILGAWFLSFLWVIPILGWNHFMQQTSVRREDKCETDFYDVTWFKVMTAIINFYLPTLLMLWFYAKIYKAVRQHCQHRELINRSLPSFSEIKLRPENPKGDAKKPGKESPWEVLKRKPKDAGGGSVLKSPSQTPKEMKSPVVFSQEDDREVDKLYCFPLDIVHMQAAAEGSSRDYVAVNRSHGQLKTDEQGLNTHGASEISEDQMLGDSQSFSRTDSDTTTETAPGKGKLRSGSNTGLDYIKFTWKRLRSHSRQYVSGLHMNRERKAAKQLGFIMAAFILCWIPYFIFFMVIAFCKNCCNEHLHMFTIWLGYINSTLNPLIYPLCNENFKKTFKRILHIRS
The next experiment deals with human H1R (Homo sapiens, UniProt P35367). The experiment can be described thus: Radioligand displacement assay, [3H]-mepyramine binding. The note with it: displacement of [3H]-mepyramine, membranes of HEK293T cells transiently expressing human H1R; mean ± SEM, at least three independent measurements. A general note: In a radioligand displacement assay an active substance lowers the binding of a labelled ligand.
Sequence of human H1R (P35367 whole entry): as above

A further experiment addresses Human H3R (Homo sapiens, UniProt Q9Y5N1). The experiment can be described thus: Radioligand displacement assay, [3H]-N-α-methylhistamine binding.

Molecules are shown by their SMILES.

Sequence of Human H3R (Q9Y5N1 whole entry): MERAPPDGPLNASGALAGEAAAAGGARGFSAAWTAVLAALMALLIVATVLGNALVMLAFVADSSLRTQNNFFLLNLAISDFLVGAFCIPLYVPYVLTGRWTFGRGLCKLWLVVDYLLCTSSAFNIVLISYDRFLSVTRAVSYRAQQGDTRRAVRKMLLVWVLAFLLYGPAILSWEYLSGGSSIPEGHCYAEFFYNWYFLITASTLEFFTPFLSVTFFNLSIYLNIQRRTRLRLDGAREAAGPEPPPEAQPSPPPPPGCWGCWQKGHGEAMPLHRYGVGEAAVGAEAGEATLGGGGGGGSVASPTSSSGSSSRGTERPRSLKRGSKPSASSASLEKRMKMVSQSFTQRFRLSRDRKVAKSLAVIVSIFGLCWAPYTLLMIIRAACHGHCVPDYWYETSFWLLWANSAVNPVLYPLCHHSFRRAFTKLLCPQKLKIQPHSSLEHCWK

On to `NC1=NCC2c3ccccc3Cc3ccccc3N12` (stereo not drawn) [Epinastine], for which the Ki (as a rule, the dissociation constant of the complex between target and ligand, obtained from inhibition or displacement) at H1 receptor is at most 10 µM.
As to `CN(C)CCCN1c2ccccc2CCc2ccccc21` [Imipramine], the Ki on H1 receptor was at most 10 µM.
`Cc1ccc(/C(=C\CN2CCCC2)c2ccccn2)cc1` [Triprolidine]: the Ki on H1 receptor is at most 10 µM.
As to `c1ccc(Cc2ccccc2OC2CCNCC2)cc1` [compound 3], the “inhibition of histamine-induced effects” value against hH1R (tested against histamine (0.1 μM), InsP accumulation) is recorded as “completely inhibit”.
`CN1CCN(c2nc(N3CCCC3)c3cnn(C)c3n2)CC1` [compound 4]: the “pKi H1R” value on human H1R is reported as 7.21 ± 0.03.
With `CNCCCOc1cccc2ccccc12` [compound 9], the “functional character in histamine stimulated InsP accumulation assays” value (“functional character” below) at hH1R was “very weak partial agonist”. Also, the intrinsic activity on hH1R (InsP accumulation, HEK293T hH1R) is 0.07.
`c1cnc2c(c1)cc([C@@H]1CCCO1)n2CCN1CCCCC1` [compound 10]: at hH1R, the “functional character” value is recorded as “inverse agonists”. Moreover, the H3R affinity result at Human H3R was “without H3R affinity”.
As to `c1ccc2c(c1)nc1n(CCN3CCCCC3)cnn21` [compound 13], the “functional character” value on hH1R was “inverse agonists”.
`c1ccc2c(c1)n(CCN1CCCCC1)c1ncnn21` [compound 15]: the “functional character” value at hH1R is “inverse agonists”. The H3R affinity result on Human H3R is given as “without H3R affinity”.
